Activity calls are given as the source filed them. No cut-off for these calls is given here.
Key:
SVR [1] = assay: Antitumor activity against mouse SVR cells xenografted in nude mouse assessed as tumor inhibition at 1 mg/kg, po bid administered after 4 days tumor implantation for 10 days; assay type: functional
[2] = molecular target: Glycogen synthase kinase-3 beta (Homo sapiens) (UniProt P49841); assay: Inhibition of GSK3-beta at 3 uM
Insulin receptor = Insulin receptor (Homo sapiens, UniProt P06213); assay: Inhibition of insulin receptor
HUVEC [3] = assay: Cytotoxicity against HUVEC; assay type: cell-based; conditions: human
[4] = molecular target: T1, Vascular endothelial growth factor receptor 2 (Homo sapiens, UniProt P35968); assay: Inhibition of VEGF-stimulated VEGFR2 autophosphorylation in HUVEC
[5] = molecular target: T2, Serine/threonine-protein kinase Chk1 (Homo sapiens) (UniProt O14757); assay: Inhibition of CHK1 at 3 uM
T2 sequence (whole entry): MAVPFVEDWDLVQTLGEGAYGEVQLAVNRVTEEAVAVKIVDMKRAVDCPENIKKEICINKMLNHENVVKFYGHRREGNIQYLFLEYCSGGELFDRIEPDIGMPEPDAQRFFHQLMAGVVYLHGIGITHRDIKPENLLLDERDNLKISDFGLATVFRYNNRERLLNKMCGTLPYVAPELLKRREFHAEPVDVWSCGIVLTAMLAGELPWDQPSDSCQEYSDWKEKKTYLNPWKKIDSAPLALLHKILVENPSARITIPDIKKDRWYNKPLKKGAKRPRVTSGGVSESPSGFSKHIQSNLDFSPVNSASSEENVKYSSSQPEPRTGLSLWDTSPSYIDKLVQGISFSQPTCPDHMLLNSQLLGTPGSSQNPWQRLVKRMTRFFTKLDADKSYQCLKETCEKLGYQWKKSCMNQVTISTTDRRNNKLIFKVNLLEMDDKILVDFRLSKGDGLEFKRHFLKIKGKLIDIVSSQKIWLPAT

[6] = molecular target: Tyrosine-protein kinase Lyn (Homo sapiens) (UniProt P07948); assay: Inhibition of Lyn at 3 uM
[7] = Volume of distribution in rat at 1 mg/kg, iv; assay type: ADME, organism-based; parameters: dose 1 mg/kg, route intravenous; conditions: in vivo
[8] = Cmax in rat at 10 mg/kg, po; assay type: ADME, organism-based; parameters: dose 10 mg/kg, route oral; conditions: in vivo
SVR [9] = assay: Antitumor activity against mouse SVR cells xenografted in nude mouse assessed as tumor regressions at 3 mg/kg, po bid administered after 4 days tumor implantation for 10 days; assay type: functional
[10] = molecular target: Tyrosine-protein kinase Fyn (Homo sapiens) (UniProt P06241); assay: Inhibition of Fyn at 3 uM
[11] = Oral bioavailability in rat at 10 mg/kg; assay type: ADME, organism-based; conditions: in vivo
[12] = AUC (0 to infinity) in rat at 1 mg/kg, iv; assay type: ADME, organism-based; parameters: time infinity, dose 1 mg/kg, route intravenous; conditions: plasma
HUVEC [13] = assay: Inhibition of capillary tube formation in HUVEC; assay type: functional, cell-based; conditions: Homo sapiens
[14] = molecular target: Tyrosine-protein kinase Lck (Homo sapiens) (UniProt P06239); assay: Inhibition of LCK at 3 uM
[15] = Plasma concentration in mouse SVR cells xenografted in nude mouse at 3 mg/kg, po bid administered after 4 days tumor implantation for 10 days measured after 2 hrs post dose; assay type: ADME, organism-based; parameters: dose 3 mg/kg, route oral
[16] = molecular target: Tyrosine-protein kinase Blk (Homo sapiens) (UniProt P51451); assay: Inhibition of Blk at 3 uM
[17] = AUC (0 to infinity) in rat at 10 mg/kg, po; assay type: ADME, organism-based; parameters: time infinity, dose 10 mg/kg, route oral; conditions: plasma
[18] = Clearance in rat at 1 mg/kg, iv; assay type: ADME, organism-based; parameters: dose 1 mg/kg, route intravenous; conditions: in vivo
[19] = Terminal half life in rat at 10 mg/kg, po; assay type: ADME, organism-based; parameters: dose 10 mg/kg, route oral; conditions: in vivo, read-out: beta t1/2 (converted)
[20] = molecular target: Vascular endothelial growth factor receptor 3 (Homo sapiens, UniProt P35916); assay: Inhibition of VEGFR3 at 3 uM
[21] = molecular target: Vascular endothelial growth factor receptor 1 (Homo sapiens, UniProt P17948); assay: Inhibition of VEGFR1 at 3 uM
[22] = Metabolic stability in rat liver S9 fraction; assay type: ADME, subcellular
[23] = Plasma concentration in mouse SVR cells xenografted in nude mouse at 1 mg/kg, po bid administered after 4 days tumor implantation for 10 days measured after 2 hrs post dose; assay type: ADME, organism-based; parameters: dose 1 mg/kg, route oral
[24] = molecular target: Epidermal growth factor receptor (Homo sapiens, UniProt P00533); assay: Inhibition of EGFR
[25] = Inhibition of MAPK at 3 uM
[26] = molecular target: T1, Vascular endothelial growth factor receptor 2; assay: Inhibition of human recombinant VEGFR2 by time resolved fluorescence measurements
[27] = Inhibition of JNK at 3 uM
Angiopoietin-1 receptor = Angiopoietin-1 receptor (Homo sapiens, UniProt Q02763); assay: Inhibition of human recombinant TIE-2 by time resolved fluorescence measurements
[28] = Inhibition of PKC at 3 uM
[29] = Terminal half life in rat at 1 mg/kg, iv; assay type: ADME, organism-based; parameters: dose 1 mg/kg, route intravenous; conditions: in vivo, read-out: beta t1/2 (converted)
[30] = Inhibition of cytochrome P450
[31] = molecular target: Tyrosine-protein kinase Yes (Homo sapiens) (UniProt P07947); assay: Inhibition of YES at 3 uM
[32] = Inhibition of CDK at 3 uM
[33] = molecular target: Platelet-derived growth factor receptor beta (Homo sapiens) (UniProt P09619); assay: Inhibition of PDGFRbeta at 3 uM
[34] = molecular target: Fibroblast growth factor receptor 3 (Homo sapiens) (UniProt P22607); assay: Inhibition of FGFR3 at 3 uM
[35] = molecular target: Dual specificity mitogen-activated protein kinase kinase 1 (Homo sapiens) (UniProt Q02750); assay: Inhibition of MEK1 at 3 uM
SVR [36] = assay: Antitumor activity against mouse SVR cells xenografted in nude mouse assessed as tumor inhibition at 3 mg/kg, po bid administered after 4 days tumor implantation for 10 days; assay type: functional
Aorta = assay: Ex vivo antiangiogenic activity in rat aortic ring assessed as inhibition of VEGF-stimulated microvessel growth; assay type: functional, tissue-based
SVR [37] = assay: Antitumor activity against mouse SVR cells xenografted in nude mouse assessed as partial tumor regressions at 1 mg/kg, po bid administered after 4 days tumor implantation for 10 days; assay type: functional
SVR [38] = assay: Antitumor activity against mouse SVR cells xenografted in nude mouse assessed as complete tumor regressions at 1 mg/kg, po bid administered after 4 days tumor implantation for 10 days; assay type: functional

T1 sequence (P35968 whole entry): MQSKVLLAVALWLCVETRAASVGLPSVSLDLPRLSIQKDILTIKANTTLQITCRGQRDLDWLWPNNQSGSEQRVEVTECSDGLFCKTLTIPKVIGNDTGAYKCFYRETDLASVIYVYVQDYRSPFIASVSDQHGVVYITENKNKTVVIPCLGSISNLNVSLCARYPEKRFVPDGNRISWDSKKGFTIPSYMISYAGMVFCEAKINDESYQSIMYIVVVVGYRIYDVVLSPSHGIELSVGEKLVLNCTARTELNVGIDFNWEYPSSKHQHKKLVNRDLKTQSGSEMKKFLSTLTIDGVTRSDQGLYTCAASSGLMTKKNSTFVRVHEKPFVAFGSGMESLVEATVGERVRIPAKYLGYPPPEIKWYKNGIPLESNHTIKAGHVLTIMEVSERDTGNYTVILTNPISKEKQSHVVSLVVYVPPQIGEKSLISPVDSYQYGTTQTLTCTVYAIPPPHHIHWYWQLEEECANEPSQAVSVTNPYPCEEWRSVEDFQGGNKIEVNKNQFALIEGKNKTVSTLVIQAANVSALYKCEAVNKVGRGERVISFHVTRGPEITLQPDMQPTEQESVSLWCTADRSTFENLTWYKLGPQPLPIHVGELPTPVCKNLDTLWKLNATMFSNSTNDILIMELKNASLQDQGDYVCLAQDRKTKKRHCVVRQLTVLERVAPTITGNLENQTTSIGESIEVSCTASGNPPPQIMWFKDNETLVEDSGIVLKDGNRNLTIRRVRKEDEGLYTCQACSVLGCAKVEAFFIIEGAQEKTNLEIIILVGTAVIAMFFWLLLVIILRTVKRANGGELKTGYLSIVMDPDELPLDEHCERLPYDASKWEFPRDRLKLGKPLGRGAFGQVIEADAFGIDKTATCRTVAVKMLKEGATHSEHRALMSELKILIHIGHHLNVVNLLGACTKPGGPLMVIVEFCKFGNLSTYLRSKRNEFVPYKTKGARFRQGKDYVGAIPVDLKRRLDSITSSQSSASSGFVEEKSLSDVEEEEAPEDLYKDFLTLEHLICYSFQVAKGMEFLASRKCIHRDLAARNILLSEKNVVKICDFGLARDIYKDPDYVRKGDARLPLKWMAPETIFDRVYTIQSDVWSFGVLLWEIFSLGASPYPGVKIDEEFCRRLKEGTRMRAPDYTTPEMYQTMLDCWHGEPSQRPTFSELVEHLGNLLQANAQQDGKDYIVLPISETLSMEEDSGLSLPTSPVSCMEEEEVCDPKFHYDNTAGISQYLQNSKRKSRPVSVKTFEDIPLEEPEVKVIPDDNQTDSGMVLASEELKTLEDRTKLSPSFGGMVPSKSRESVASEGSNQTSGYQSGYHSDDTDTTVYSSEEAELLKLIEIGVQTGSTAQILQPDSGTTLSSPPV
Sequence of Epidermal growth factor receptor (P00533 whole entry): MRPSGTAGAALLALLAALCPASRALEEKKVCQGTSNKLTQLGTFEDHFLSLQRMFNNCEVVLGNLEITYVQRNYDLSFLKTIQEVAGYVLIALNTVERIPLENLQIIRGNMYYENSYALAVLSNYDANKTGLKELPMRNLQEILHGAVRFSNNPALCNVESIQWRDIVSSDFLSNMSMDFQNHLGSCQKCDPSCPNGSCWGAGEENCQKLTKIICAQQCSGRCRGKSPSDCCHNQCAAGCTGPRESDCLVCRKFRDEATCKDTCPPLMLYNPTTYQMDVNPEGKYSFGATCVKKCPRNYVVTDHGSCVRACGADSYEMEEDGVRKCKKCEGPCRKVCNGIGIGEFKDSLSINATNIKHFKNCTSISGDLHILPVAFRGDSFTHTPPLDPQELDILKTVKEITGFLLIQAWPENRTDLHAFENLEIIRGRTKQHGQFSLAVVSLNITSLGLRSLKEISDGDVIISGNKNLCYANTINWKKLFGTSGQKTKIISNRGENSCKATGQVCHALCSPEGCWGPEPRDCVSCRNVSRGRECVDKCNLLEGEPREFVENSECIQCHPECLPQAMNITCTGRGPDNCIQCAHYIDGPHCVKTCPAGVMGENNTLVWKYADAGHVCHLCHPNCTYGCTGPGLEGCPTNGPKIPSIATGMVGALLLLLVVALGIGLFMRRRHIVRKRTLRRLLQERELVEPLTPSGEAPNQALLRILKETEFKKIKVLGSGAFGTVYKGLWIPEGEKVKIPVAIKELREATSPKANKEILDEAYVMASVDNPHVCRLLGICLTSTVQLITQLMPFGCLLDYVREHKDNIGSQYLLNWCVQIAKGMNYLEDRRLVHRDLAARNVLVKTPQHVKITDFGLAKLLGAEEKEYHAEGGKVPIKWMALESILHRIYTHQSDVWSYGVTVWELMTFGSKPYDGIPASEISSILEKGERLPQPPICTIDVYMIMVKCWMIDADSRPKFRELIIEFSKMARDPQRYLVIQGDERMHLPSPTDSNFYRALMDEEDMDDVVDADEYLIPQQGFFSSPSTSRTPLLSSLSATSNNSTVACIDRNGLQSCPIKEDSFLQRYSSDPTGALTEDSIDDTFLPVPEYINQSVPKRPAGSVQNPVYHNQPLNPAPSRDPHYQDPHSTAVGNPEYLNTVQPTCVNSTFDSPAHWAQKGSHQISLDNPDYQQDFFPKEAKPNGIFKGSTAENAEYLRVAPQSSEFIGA
Sequence of Vascular endothelial growth factor receptor 1 (P17948 whole entry): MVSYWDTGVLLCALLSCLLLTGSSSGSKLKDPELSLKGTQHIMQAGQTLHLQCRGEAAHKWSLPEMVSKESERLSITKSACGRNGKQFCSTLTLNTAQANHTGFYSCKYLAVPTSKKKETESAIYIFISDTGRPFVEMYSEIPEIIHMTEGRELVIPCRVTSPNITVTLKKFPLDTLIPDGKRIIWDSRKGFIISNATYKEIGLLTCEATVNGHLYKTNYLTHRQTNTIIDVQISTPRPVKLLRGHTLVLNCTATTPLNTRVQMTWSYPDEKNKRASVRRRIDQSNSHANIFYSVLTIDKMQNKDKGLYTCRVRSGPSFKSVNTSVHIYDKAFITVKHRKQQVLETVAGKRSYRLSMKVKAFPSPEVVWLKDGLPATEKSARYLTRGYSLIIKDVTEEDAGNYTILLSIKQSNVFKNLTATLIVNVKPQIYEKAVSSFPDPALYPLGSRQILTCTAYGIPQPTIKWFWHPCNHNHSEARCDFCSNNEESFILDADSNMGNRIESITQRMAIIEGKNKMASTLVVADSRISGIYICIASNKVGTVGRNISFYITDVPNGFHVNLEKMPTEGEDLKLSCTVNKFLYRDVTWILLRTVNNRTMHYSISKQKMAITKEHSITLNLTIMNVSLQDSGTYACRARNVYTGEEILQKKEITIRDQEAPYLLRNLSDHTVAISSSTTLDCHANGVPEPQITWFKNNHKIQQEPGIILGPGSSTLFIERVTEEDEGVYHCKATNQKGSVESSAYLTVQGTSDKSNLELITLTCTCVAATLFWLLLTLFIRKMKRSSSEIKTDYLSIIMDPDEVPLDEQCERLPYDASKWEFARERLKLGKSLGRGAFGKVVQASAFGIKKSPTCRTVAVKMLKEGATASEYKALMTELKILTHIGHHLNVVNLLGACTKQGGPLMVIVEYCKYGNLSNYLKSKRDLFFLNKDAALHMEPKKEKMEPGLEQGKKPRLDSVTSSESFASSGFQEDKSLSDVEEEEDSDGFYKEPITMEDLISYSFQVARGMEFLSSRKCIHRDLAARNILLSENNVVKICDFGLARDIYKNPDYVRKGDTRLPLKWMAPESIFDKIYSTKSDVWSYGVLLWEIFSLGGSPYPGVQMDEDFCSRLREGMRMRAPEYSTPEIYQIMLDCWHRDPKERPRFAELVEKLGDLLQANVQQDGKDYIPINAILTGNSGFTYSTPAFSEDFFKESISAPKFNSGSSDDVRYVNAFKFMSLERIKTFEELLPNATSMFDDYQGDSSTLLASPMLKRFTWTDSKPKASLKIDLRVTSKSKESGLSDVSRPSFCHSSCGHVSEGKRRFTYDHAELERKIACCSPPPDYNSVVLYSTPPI
Sequence of Tyrosine-protein kinase Lck (Homo sapiens) (P06239 2-509 limits assumed): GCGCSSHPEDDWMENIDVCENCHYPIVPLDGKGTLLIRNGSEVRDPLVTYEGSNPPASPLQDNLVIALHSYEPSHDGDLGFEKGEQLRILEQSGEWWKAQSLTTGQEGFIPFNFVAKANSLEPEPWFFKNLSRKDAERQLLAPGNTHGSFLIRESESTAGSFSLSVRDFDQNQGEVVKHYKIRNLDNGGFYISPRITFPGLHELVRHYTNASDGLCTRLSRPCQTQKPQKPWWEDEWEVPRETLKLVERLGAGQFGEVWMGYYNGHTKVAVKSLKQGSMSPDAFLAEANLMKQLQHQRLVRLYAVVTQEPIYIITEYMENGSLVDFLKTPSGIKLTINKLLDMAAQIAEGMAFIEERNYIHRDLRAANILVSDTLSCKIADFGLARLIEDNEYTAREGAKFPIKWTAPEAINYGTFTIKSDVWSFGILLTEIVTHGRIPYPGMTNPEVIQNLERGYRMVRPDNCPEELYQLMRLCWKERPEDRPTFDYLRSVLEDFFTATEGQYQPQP
Sequence of Dual specificity mitogen-activated protein kinase kinase 1 (Homo sapiens) (Q02750 whole entry): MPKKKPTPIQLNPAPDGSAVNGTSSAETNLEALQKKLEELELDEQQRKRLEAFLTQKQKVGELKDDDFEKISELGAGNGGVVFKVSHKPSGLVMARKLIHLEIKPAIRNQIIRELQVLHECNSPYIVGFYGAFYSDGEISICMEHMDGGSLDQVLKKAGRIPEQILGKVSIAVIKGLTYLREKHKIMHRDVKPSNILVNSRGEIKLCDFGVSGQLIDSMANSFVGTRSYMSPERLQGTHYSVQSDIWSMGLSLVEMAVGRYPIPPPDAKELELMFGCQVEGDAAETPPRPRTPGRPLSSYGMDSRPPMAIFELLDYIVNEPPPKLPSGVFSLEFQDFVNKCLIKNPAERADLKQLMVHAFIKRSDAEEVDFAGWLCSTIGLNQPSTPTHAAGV

With `CCCCn1c2ccc(C3CCCCO3)cc2c2c3c(c4c(c21)CCc1nn(C)cc1-4)C(=O)NC3` (racemic) the inhibition in vivo at 1 mg/kg (SVR [1]) was 52%, the inhibition [2] was “inactive” and the IC50 (Insulin receptor) was greater than 1000 nM. The Activity (HUVEC [3]) was “Non-toxic”, the IC50 [4] was 10 nM and the inhibition [5] was “inactive”. The inhibition [6] was greater than 90%, the Vd [7] was 2 L/kg and the Cmax [8] was 255 ng/mL. It also gave an Activity (SVR [9]) of 10%, an inhibition [10] greater than 90% and a bioavailability [11] of 16%. It also gave an AUC(0-inf) [12] of 1160 ng·h/mL, an EC50 (HUVEC [13]) of 0.6 nM and an inhibition [14] greater than 90%. The concentration at 2 h [15] was 900 nM, the inhibition [16] was greater than 90% and the AUC(0-inf) [17] was 1890 ng·h/mL. For the same compound, the clearance [18] was 15 mL/min/kg, the half-life [19] was 2.8 h and the IC50 [20] was 5 nM. For the same compound, the IC50 [21] was 28 nM, the Stability [22] was “Stable” and the concentration at 2 h [23] was 158 nM. For the same compound, the IC50 [24] was greater than 1000 nM, the inhibition [25] was “inactive” and the IC50 [26] was 24 nM. For the same compound, the inhibition [27] was “inactive”, the IC50 (Angiopoietin-1 receptor) was 10 nM and the inhibition [28] was “inactive”. It also gave a half-life [29] of 1.5 h, an INH [30] greater than 10 µM and an inhibition [31] greater than 90%. For the same compound, the inhibition [32] was “inactive”, the inhibition [33] was greater than 90% and the inhibition [34] was 100%. The inhibition [35] was “inactive”, the inhibition in vivo at 3 mg/kg (SVR [36]) was 63% and the EC50 (Aorta) was 1.2 nM.

With `CC(C)Cn1c2ccc(C3CCCCO3)cc2c2c3c(c4c(c21)CCc1nn(C)cc1-4)C(=O)NC3` (racemic) the inhibition in vivo at 1 mg/kg (SVR [1]) was 59%, the inhibition [2] was “inactive” and the Activity (SVR [37]) was 10%. For the same compound, the IC50 (Insulin receptor) was greater than 1000 nM, the Activity (HUVEC [3]) was “Non-toxic” and the IC50 [4] was 10 nM. The inhibition [5] was “inactive”, the inhibition [6] was greater than 90% and the Vd [7] was 3.2 L/kg. For the same compound, the Cmax [8] was 154 ng/mL, the Activity (SVR [9]) was 10% and the inhibition [10] was greater than 90%. The bioavailability [11] was 15%, the AUC(0-inf) [12] was 862 ng·h/mL and the EC50 (HUVEC [13]) was 2 nM. For the same compound, the inhibition [14] was greater than 90%, the concentration at 2 h [15] was 950 nM and the inhibition [16] was greater than 90%. The AUC(0-inf) [17] was 1260 ng·h/mL, the clearance [18] was 20 mL/min/kg and the half-life [19] was 3.9 h. For the same compound, the IC50 [20] was 9 nM, the IC50 [21] was 16 nM and the Stability [22] was “Stable”. For the same compound, the concentration at 2 h [23] was 321 nM, the IC50 [24] was greater than 1000 nM and the Activity (SVR [38]) was 10%. The inhibition [25] was “inactive”, the IC50 [26] was 11 nM and the inhibition [27] was “inactive”. For the same compound, the IC50 (Angiopoietin-1 receptor) was 3 nM, the inhibition [28] was “inactive” and the half-life [29] was 1.9 h. The INH [30] was greater than 10 µM, the inhibition [31] was greater than 90% and the inhibition [32] was “inactive”. For the same compound, the inhibition [33] was greater than 90%, the inhibition [34] was 100% and the inhibition [35] was “inactive”. It also gave an inhibition in vivo at 3 mg/kg (SVR [36]) of 61% and an EC50 (Aorta) of 0.9 nM.
